Data as given in patent US11878970B2, “Allosteric chromenone inhibitors of phosphoinositide 3-kinase (PI3K) for the treatment of disease” (Petra Pharma Corporation, priority 2021, dated 2024).

Legend:
[1] = target: T1, PI3K-α (PIK3CA) wild-type (WT), p110α/p85α complex (Homo sapiens, UniProt P42336); assay: PI3K-alpha kinase (PIK3CA) biochemical activity, ADP-Glo, wild-type; details: Soy PI lipid substrate
T1 construct: Recombinant, catalytically active human full length PIK3KA Wild-type and H1047R mutant; 6×His (N); purchased EMD Millipore Sigma 14-602M
Procedure, shortened: (§1)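 ADP formation measured by ADP-Glo luminescence after reaction at 27 °C to about 10% ATP turnover, using 20 uM ATP, 50 uM PIP2diC8 or soy PI lipid, HEPES pH 7.4 with MgCl2. Enzyme (1-5 nM WT or H1047R p110α/p85α) and compound preincubated 1 h first; 10-point 1:3 curves fitted four-parameter for IC50.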

[2] = target: T2, PI3K-α (PIK3CA) H1047R mutant, p110α/p85α complex (Homo sapiens, UniProt P42336, H1047R); assay: PI3K-alpha kinase (PIK3CA) biochemical activity, ADP-Glo, H1047R mutant; details: Soy PI lipid substrate
T2 construct: Recombinant, catalytically active human full length PIK3KA Wild-type and H1047R mutant; 6×His (N); purchased EMD Millipore Sigma 14-792M
T2 sequence (P42336 whole entry H1047R): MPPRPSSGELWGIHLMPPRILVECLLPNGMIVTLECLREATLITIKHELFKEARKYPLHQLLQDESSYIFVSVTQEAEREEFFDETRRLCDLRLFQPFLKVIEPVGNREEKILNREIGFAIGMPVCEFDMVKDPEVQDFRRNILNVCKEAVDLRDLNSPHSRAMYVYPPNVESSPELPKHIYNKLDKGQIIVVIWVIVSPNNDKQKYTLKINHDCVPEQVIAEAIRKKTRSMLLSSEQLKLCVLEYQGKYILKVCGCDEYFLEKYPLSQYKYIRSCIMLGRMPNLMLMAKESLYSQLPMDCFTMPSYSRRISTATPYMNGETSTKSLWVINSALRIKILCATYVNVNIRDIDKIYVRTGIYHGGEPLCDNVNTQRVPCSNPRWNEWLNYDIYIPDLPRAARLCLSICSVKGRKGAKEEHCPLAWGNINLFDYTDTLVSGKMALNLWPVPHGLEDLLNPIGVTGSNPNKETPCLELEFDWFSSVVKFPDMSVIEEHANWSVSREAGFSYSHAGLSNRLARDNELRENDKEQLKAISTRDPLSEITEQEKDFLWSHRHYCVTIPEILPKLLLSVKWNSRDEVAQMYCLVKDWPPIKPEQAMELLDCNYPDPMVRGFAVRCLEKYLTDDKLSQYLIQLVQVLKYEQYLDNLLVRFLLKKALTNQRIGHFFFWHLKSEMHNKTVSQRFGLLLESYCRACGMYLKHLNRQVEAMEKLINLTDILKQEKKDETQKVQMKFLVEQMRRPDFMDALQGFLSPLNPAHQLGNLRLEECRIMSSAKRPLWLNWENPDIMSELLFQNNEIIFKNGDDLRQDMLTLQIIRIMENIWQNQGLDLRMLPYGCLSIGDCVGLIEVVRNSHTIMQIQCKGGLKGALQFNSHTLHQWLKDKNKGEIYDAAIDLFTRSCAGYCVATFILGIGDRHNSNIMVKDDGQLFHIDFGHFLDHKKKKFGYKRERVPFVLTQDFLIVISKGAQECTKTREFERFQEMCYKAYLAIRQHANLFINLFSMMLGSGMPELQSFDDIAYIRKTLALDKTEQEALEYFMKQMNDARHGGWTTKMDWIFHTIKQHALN
T2 sequence (P27986 whole entry partner): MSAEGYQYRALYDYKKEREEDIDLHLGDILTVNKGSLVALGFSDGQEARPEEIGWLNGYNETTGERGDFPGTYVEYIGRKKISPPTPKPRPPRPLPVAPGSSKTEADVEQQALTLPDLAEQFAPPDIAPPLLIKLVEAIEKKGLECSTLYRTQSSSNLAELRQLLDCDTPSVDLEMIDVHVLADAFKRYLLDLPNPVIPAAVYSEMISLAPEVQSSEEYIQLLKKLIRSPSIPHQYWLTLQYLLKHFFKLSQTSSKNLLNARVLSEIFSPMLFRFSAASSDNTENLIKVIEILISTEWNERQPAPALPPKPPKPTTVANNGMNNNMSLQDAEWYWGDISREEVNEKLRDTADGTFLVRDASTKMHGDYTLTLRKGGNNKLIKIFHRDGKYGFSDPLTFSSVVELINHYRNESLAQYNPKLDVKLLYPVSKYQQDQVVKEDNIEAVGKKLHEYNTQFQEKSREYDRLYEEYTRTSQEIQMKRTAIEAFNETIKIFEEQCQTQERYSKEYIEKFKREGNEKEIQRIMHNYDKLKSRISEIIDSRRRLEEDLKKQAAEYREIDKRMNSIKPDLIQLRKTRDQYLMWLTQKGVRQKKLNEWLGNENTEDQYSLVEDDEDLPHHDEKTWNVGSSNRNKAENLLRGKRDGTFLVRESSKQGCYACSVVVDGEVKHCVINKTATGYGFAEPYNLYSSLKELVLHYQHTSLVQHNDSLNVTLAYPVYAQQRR
Procedure, shortened: as §1

[3] = target: PI3K-α (PIK3CA) in MDA-MB-453 cells (Homo sapiens, UniProt P42336); assay: PI3K-alpha kinase (PIK3CA) in vitro cell based assay, MDA-MB-453 cells, SureFire Ultra AlphaLisa; details: read-out: PI3K-α (PIK3CA) in vitro cell based assay IC50
PI3K-α (PIK3CA) in MDA-MB-453 cells, sequence (P27986 2-724): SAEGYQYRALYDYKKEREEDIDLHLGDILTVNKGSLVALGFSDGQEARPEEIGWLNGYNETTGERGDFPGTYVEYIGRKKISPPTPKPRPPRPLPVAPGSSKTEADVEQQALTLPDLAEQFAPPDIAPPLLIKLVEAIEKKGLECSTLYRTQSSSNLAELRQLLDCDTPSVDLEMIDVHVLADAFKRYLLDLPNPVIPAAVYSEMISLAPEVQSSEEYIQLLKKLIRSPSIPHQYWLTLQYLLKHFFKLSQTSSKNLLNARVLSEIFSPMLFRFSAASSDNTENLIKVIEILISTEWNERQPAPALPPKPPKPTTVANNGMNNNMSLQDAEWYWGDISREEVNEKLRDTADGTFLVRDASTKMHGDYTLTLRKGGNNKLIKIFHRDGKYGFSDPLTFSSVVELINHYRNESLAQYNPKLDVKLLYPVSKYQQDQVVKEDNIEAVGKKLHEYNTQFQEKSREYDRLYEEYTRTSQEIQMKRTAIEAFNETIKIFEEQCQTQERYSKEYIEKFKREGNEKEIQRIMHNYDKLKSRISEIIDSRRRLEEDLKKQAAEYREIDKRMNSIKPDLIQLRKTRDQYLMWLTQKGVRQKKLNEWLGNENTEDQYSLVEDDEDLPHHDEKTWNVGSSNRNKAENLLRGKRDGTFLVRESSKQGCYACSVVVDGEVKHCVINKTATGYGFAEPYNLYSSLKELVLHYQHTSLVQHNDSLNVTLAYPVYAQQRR
PI3K-α (PIK3CA) in MDA-MB-453 cells, sequence (P42336 whole entry): as the sequence (P42336 whole entry H1047R) above, with R1047H counted along it
Procedure, shortened: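 Cells treated 3 h in serum-free MEM with 1 μg/mL insulin, 10-point 1:3 series in 0.3% DMSO, then lysed for SureFire Ultra AlphaLisa read-out. Inhibition normalized to DMSO (max) and 1 μM GDC-0032 (min); duplicate averages fitted by 4-parameter logistic for relative IC50.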

Row | Structure (SMILES) | IC50 [1] [nM] | IC50 [2] [nM] | IC50 [3] [nM]
1 | Cc1cc([C@@H](C)Nc2ccccc2C(=O)O)c2oc(-c3ccc4c(cnn4Cc4ccccc4)c3)c(C)c(=O)c2c1 [Example 211, 2-[[(1R)-1-[2-(1-Benzylindazol-5-yl)-3,6-dimethyl-4-oxo-chromen-8-yl]ethyl]amino]benzoic acid] | 500 to 1000 | < 500 | 50 to 100
2 | Cc1cc([C@@H](C)Nc2ccc(Cl)nc2C(=O)O)c2oc(-c3cc4cnccc4o3)c(C)c(=O)c2c1 [Example 214, 6-Chloro-3-[[(1R)-1-(2-furo[3,2-c]pyridin-2-yl-3,6-dimethyl-4-oxo-chromen-8-yl)ethyl]amino]pyridine-2-carboxylic acid] | < 500 | < 500 | < 50
3 | Cc1cc([C@@H](C)Nc2ccc(C)nc2C(=O)O)c2oc(-c3ccc4nc(C)cn4c3)cc(=O)c2c1 [Example 225, 6-Methyl-3-[[(1R)-1-[6-methyl-2-(2-methylimidazo[1,2-a]pyridin-6-yl)-4-oxo-chromen-8-yl]ethyl]amino]pyridine-2-carboxylic acid] | 1000 to 5000 | < 500 | 100 to 500
4 | Cc1cc([C@@H](C)Nc2cccnc2C(=O)O)c2oc(-c3cc(C)c4nn(C)cc4c3)cc(=O)c2c1 [Example 231, 3-[[(1R)-1-[2-(2,7-Dimethylindazol-5-yl)-6-methyl-4-oxo-chromen-8-yl]ethyl]amino]pyridine-2-carboxylic acid] | > 10000 | 1000 to 5000 | 100 to 500
5 | Cc1cc([C@@H](C)Nc2cccnc2C(=O)O)c2oc(-c3nn(C)c4ccccc34)cc(=O)c2c1 [Example 232, 3-[[(1R)-1-[6-Methyl-2-(1-methylindazol-3-yl)-4-oxo-chromen-8-yl]ethyl]amino]pyridine-2-carboxylic acid] | > 10000 | 500 to 1000 | 100 to 500
6 | Cc1cc([C@@H](C)Nc2ccc(C(F)(F)F)nc2C(=O)O)c2oc(-c3ccc4nc(C)sc4n3)c(C)c(=O)c2c1 [Example 233, 3-[[(1R)-1-[3,6-Dimethyl-2-(2-methylthiazolo[5,4-b]pyridin-5-yl)-4-oxo-chromen-8-yl]ethyl]amino]-6-(trifluoromethyl)pyridine-2-carboxylic acid] | 1000 to 5000 | < 500 | 100 to 500
7 | Cc1cc([C@@H](C)Nc2ccc(C(F)(F)F)cc2C(=O)O)c2oc(-c3ccc4nc(C)sc4n3)c(C)c(=O)c2c1 [Example 234, 2-[[(1R)-1-[3,6-Dimethyl-2-(2-methylthiazolo[5,4-b]pyridin-5-yl)-4-oxo-chromen-8-yl]ethyl]amino]-5-(trifluoromethyl)benzoic acid] | 1000 to 5000 | 1000 to 5000 | 100 to 500
8 | Cc1cc([C@@H](C)Nc2ccc(C(F)(F)F)cc2C(=O)O)c2oc(-c3ccc4nn(C)cc4c3)c(C)c(=O)c2c1 [Example 235, 2-[[(1R)-1-[3,6-Dimethyl-2-(2-methylindazol-5-yl)-4-oxo-chromen-8-yl]ethyl]amino]-5-(trifluoromethyl)benzoic acid] | 1000 to 5000 | < 500 | 50 to 100
9 | Cc1cc([C@@H](C)Nc2ccc(C(F)(F)F)nc2C(=O)O)c2oc(-c3ccc4nn(C)cc4c3)c(C)c(=O)c2c1 [Example 236, 3-[[(1R)-1-[3,6-Dimethyl-2-(2-methylindazol-5-yl)-4-oxo-chromen-8-yl]ethyl]amino]-6-(trifluoromethyl)pyridine-2-carboxylic acid] | 500 to 1000 | < 500 | < 50
10 | Cc1cc([C@@H](C)Nc2cccnc2C(=O)O)c2oc(-c3ccc4nn(C)cc4c3)c(C)c(=O)c2c1 [Example 240, 3-[[(1R)-1-[3,6-Dimethyl-2-(2-methylindazol-5-yl)-4-oxo-chromen-8-yl]ethyl]amino]pyridine-2-carboxylic acid] | 1000 to 5000 | 500 to 1000 | 50 to 100
11 | Cc1cc([C@@H](C)Nc2ccc(Cl)nc2C(=O)O)c2oc(-c3ccc4nc(C)sc4n3)c(C)c(=O)c2c1 [Example 242, 6-Chloro-3-[[(1R)-1-[3,6-dimethyl-2-(2-methylthiazolo[5,4-b]pyridin-5-yl)-4-oxo-chromen-8-yl]ethyl]amino]pyridine-2-carboxylic acid] | 500 to 1000 | < 500 | < 50
12 | Cc1cc([C@@H](C)Nc2cccnc2C(=O)O)c2oc(-c3ccc4nc(C)sc4n3)c(C)c(=O)c2c1 [Example 243, 3-[[(1R)-1-[3,6-Dimethyl-2-(2-methylthiazolo[5,4-b]pyridin-5-yl)-4-oxo-chromen-8-yl]ethyl]amino]pyridine-2-carboxylic acid] | 1000 to 5000 | 1000 to 5000 | 100 to 500
13 | Cc1cc([C@@H](C)Nc2ccc(Br)nc2C(=O)O)c2oc(-c3ccc4nn(C)cc4c3)c(C)c(=O)c2c1 [Example 244, 6-Bromo-3-[[(1R)-1-[3,6-dimethyl-2-(2-methylindazol-5-yl)-4-oxo-chromen-8-yl]ethyl]amino]pyridine-2-carboxylic acid] | < 500 | < 500 | < 50
14 | Cc1cc([C@@H](C)Nc2ccc(Br)nc2C(=O)O)c2oc(-c3ccc4nc(C)sc4n3)c(C)c(=O)c2c1 [Example 245, 6-Bromo-3-[[(1R)-1-[3,6-dimethyl-2-(2-methylthiazolo[5,4-b]pyridin-5-yl)-4-oxo-chromen-8-yl]ethyl]amino]pyridine-2-carboxylic acid] | < 500 | < 500 | < 50
15 | Cc1cc([C@@H](C)Nc2ccc(Cl)nc2C(=O)O)c2oc(-c3ccc4nc(C)sc4c3)c(C)c(=O)c2c1 [Example 246, 6-Chloro-3-[[(1R)-1-[3,6-dimethyl-2-(2-methyl-l,3-benzothiazol-6-yl)-4-oxo-chromen-8-yl]ethyl]amino]pyridine-2-carboxylic acid] | 500 to 1000 | < 500 | < 50

More lines, now with the values ahead:

Row | IC50 [1] [nM] | IC50 [2] [nM] | IC50 [3] [nM] | Structure (SMILES)
16 | 1000 to 5000 | 500 to 1000 | 100 to 500 | Cc1cc([C@@H](C)Nc2cccnc2C(=O)O)c2oc(-c3ccc4nn(C)cc4c3)cc(=O)c2c1 [Example 226, 3-[[(1R)-1-[6-Methyl-2-(2-methylindazol-5-yl)-4-oxo-chromen-8-yl]ethyl]amino]pyridine-2-carboxylic acid]
17 | 500 to 1000 | < 500 | < 50 | Cc1cc([C@@H](C)Nc2cccc(F)c2C(=O)O)c2oc(-c3ccc4nn(C)cc4c3)c(C)c(=O)c2c1 [Example 227, 2-[[(1R)-1-[3,6-Dimethyl-2-(2-methylindazol-5-yl)-4-oxo-chromen-8-yl]ethyl]amino]-6-fluoro-benzoic acid]
18 | 500 to 1000 | < 500 | 100 to 500 | Cc1cc([C@@H](C)Nc2cccc(F)c2C(=O)O)c2oc(-c3ccc4nc(C)cn4c3)cc(=O)c2c1 [Example 228, 2-Fluoro-6-[[(1R)-1-[6-methyl-2-(2-methylimidazo[1,2-a]pyridin-6-yl)-4-oxo-chromen-8-yl]ethyl]amino]benzoic acid]
19 | < 500 | < 500 | 100 to 500 | Cc1cc([C@@H](C)Nc2cccc(F)c2C(=O)O)c2oc(-c3ccc4nc(C)cn4c3)c(C)c(=O)c2c1 [Example 229, 2-[[(1R)-1-[3,6-Dimethyl-2-(2-methylimidazo[1,2-a]pyridin-6-yl)-4-oxo-chromen-8-yl]ethyl]amino]-6-fluoro-benzoic acid]
20 | < 500 | < 500 | 50 to 100 | Cc1cc([C@@H](C)Nc2cccc(F)c2C(=O)O)c2oc(-c3nn(C)c4ccccc34)c(C)c(=O)c2c1 [Example 230, 2-[[(1R)-1-[3,6-Dimethyl-2-(1-methylindazol-3-yl)-4-oxo-chromen-8-yl]ethyl]amino]-6-fluoro-benzoic acid]
21 | 500 to 1000 | < 500 | 50 to 100 | Cc1cc([C@@H](C)Nc2ccc(Cl)cc2C(=O)O)c2oc(-c3ccc4cnn(C)c4c3)cc(=O)c2c1 [Example 237, 5-Chloro-2-[[(1R)-1-[6-methyl-2-(1-methylindazol-6-yl)-4-oxo-chromen-8-yl]ethyl]amino]benzoic acid]
22 | < 500 | < 500 | < 50 | Cc1cc([C@@H](C)Nc2ccc(F)cc2C(=O)O)c2oc(-c3ccc4cnn(C)c4c3)cc(=O)c2c1 [Example 238, 5-Fluoro-2-[[(1R)-1-[6-methyl-2-(1-methylindazol-6-yl)-4-oxo-chromen-8-yl]ethyl]amino]benzoic acid]
23 | > 10000 | 1000 to 5000 | 100 to 500 | Cc1cc([C@@H](C)Nc2cccnc2C(=O)O)c2oc(-c3ccc4nc(C)sc4n3)cc(=O)c2c1 [Example 239, 3-[[(1R)-1-[6-Methyl-2-(2-methylthiazolo[5,4-b]pyridin-5-yl)-4-oxo-chromen-8-yl]ethyl]amino]pyridine-2-carboxylic acid]
24 | 500 to 1000 | < 500 | 50 to 100 | Cc1cc([C@@H](C)Nc2cccc(F)c2C(=O)O)c2oc(-c3ccc4cc[nH]c4n3)cc(=O)c2c1 [Example 241, 2-Fluoro-6-[[(1R)-1-[6-methyl-4-oxo-2-(1H-pyrrolo[2,3-b]pyridin-6-yl)chromen-8-yl]ethyl]amino]benzoic acid]
